Source: patent US8133971B2, “Polypeptide specifically bound to phosphatidylserine and the use thereof” (Kyungpook National University Industry Academic Cooperation …, priority 2008, dated 2012)
Ends that are not written are not given here. fluorescein = fluorescein bonded at the N-terminus

How the values were obtained:
[1] = system: apoptotic cells (H460 cell); assay: competitive inhibition of phage binding to apoptotic cells (phage titer); type: cell-based, Human; settings: for phage titer of selected phage bound to apoptotic cells after peptide treatment: peptide 50 μM, H460, versus un-treated group
Experimental: The specificity of the phage to phosphatidylserine bound to apoptotic cells is tested by competitive inhibition with annexin V.
A pre-cultured group, which is cultured for 30 minutes with annexin V (10 μM) before the apoptotic cells (H460 cell) are cultured with the phage, is used for the test. And a control group, which is not pre-cultured with annexin V, is used for the test. Phages are bound and eluted as described in the embodiment 4-1 and then phage titer is measured.
And, phage titer of a group treated with the synthesized peptide (50 μM) according to CLSYYPSYC (SEQ ID NO: 1) of amino acid sequence, which is shown in the selected phage clone, is measured. Phage titer of an un-treated group and a group treated with the peptide of the control group are measured. Phages are bound and eluted as described in the embodiment 4-1 and then phage titer is measured.

[2] = system: H460 cell; assay: FACS analysis of labeled peptide binding to normal or apoptotic cells; type: cell-based, Human; settings: fluorescein at N-end, 2.5 μM, 15 minutes; for binding of labeled peptide to apoptotic cells by FACS: apoptotic H460 cell
Experimental: Apoptotic cells are treated with a labeled peptide of the present embodiment and then FACS analyses are carried out to confirm that whether the peptide of the present embodiment is bound to phosphatidylserine of apoptotic cells or not.
The peptide used in the present embodiment has a form in which fluorescein is bonded at N-end. The peptide is synthesized according to the standard Fmoc method and separated by HPLC (Peptron Co.) before use.
The final concentration of the peptide of the present embodiment or the control group peptide (amino acid sequence: NSSVDK (SEQ ID NO: 8)) is 2.5 μM and the solution is dissolved in Hepes buffer (pH7.4, Hepes 10 mM, […] 138 mM, and with/without CaCl2). The solution is mixed with normal H460 cell or dead H460 cell (1×10^5 cells/mL) to become 0.5 mL of final volume and then cultured for 15 minutes at room temperature. The cells are washed with a binding buffer and then FACS analyses are immediately carried out (FACSScan, Becton Dickinson, San Jose, Calif.).

[3] = system: H460 cells; assay: fluorescence and confocal microscopy of peptide and annexin V marking of cells; type: cell-based, Human; settings: for marking of apoptotic cells (fluorescent microscope) / marking of normal cells (fluorescent microscope): fluorescein peptide 10 μM, annexin V Alexa fluor 594; for marking of normal cells (fluorescent microscope): normal H460 cells
Experimental: H460 cells are cultured in a chamber slide (Nalgen Nunc Int.) and apoptosis is induced as described in embodiment 4-1. The apoptotic cells are washed with PBS and then the cells are cultured in tyrodes buffer in the presence of a peptide marked with 10 μM of fluorescein for 30 minutes at room temperature. After that, the cells are cultured with annexin V Alexa fluor 594 (Molecular Probes) for 15 minutes at room temperature. The cells are washed with PBS and then fixed with 4% of paraformaldehyde for 5 minutes. After that, the cells are counterstained by 4′,6-diamidino-2-phenylindole (DAPI) and then the cells are treated with a mounting solution to take a picture by fluorescent microscope (Zeiss, Oberkochen, Germany).
Also as shown in the FIG. 4C, the image is taken by a laser confocal microscope (LEICA).

[4] = system: H460 tumor xenografts; assay: in vivo homing and in vivo/ex vivo visualization in tumor xenografts; set-up: species or system BALB/c male nude mouse; settings: for ex vivo fluorescein signal from tumor tissue: tumor removed 2 hours after peptide injection; for in vivo fluorescein signal from tumor tissue: 50 μM through tail vein, after 2 hours
Experimental: All of animal experiments are carried out in accordance with guidelines of the kyoungpook national university. For tumor xenografts, H460 cells (1×10^7 cells) floated on RPMI medium containing 10% FBS are injected hypodermically at a right shoulder of a 6 week old BALB/c male nude mouse (SLC, Inc.). Then, tumor cells are allowed to grow about 0.5 to 1.0 cm for 3 weeks.
The mice having tumor cells are divided into a camptothecin treated group and untreated group, and then the camptothecin treated group is taken a dose of camptothecin (Sigma, 10 mg/kg) at 24 hours before peptide treatment. After that, fluorescein-labeled peptide (fluorescein-labeled CLSYYPSYC (SEQ ID NO: 1)) (50 μM) of the present embodiment or a control group peptide (50 μM) is injected through tail vein under isoflurane anesthesia. The peptide induced to the tumor cells are checked at every hour by the optical visualization system (ART Advanced Research Technologies Inc., Montreal, Canada) using […]/GFP filter after peptide injection. To each used mouse, baseline fluorescence of fluorescein is measured before peptide injection. The obtained image is treated and normalized by eXplore Optix optiView Software. After 2 hours of the peptide injection, the tumor is removed from the mouse and then ex vivo visualization of the tumor cell is carried out. The image is treated as above.

[5] = system: H460 tumor xenografts; assay: histological test of in vivo homing (CD31 staining, TUNEL, organs); settings: for peptide observed in tumor region stained by CD31: fluorescence microscope
Source text: For a histological test, the above mouse undergoes anesthesia and then undergoes laparotomy. PBS and 4% paraformaldehyde (PFA) fixing agent is used for perfusion, and then tumor tissue and organs are removed. After cryosection of each tissue, the peptide of the present embodiment is observed by fluorescence microscope. Tumor vessels are stained by immunohistochemistry using an antibody (BD Pharmigen) to the mouse CD31 and alexa 568 labeled secondary antibody. Cell death in a tumor tissue is verified by TUNEL ([…] terminal deoxynucleotidyl transferase-mediated dUTP nick-end labeling) analyses according to the manufacturer's manual (Chemicon Int. USA).

[6] = phosphatidylserine binding of phage clone in the presence of annexin V (phage ELISA); settings: annexin V protein 10 μM
Experimental: The phosphatidylserine binding specificity of the selected phage clone is tested by phosphatidylserine binding in the presence of annexin V.
In short, Immulon 1B microtiter plate is coated with phosphatidylcholine as described in the embodiment 1-2. Then, the plates are blocked with TBS medium containing 10 mg/mL of BSA for 1 hour at room temperature.
The selected phage clone is added to 100 μl of TBS buffer and then the mixture is added to the well coated with phosphatidylcholine. The well is gently shaken for 1 hour at room temperature (incubate). In a group in which annexin V is added, the above phage clone is cultured in the presence of annexin V protein (10 μM) and then 100 μl of TBS buffer is added to the phage clone. The mixture is added to the well coated with phosphatidylserine and then the well is gently shaken for 1 hour at room temperature. The well is strongly washed with TBS-T (TBS containing 0.05% Tween-20) buffer for 6 times and then phages bound to the well are detected by binding HRP (horseradish peroxidase)-bound anti-M13 antibody (New England Biolabs) (dilution, 1:4000 in TBS-T) for 1 hour at room temperature. After that, color reaction is carried out with HRP substrate suspension (TMB, Pierce). The color reaction is stopped by adding 2N H2SO4 and then absorbance is measure by the microplate reader (Bio-Rad, model 550) at 450 nm.

[7] = annexin V binding test of coated plate; settings: his-tagged recombinant annexin V 20 μg/mL, 1 hour at room temperature
Experimental: For the preparation of a plate (or well) coated by phosphatidylserine or phosphatidylcholine, phosphatidylserine or phosphatidylcholine is dissolved in ethanol (300 μg/mL, 100 μL), and then the solution is placed and dried in Immulon 1B microtiter plate (Thermo, Milford, Mass., USA) for 6 hours in air. To prevent from non-specific binding, TBS (Tris-HCl 50 mM, pH7.4, NaCl 150 mM) containing 10 mg/mL of BSA (bovine serum albumin) is added to the solution and then blocking is performed for 1 hours at room temperature. The plates coated by phosphatidylserine or phosphatidylcholine are evaluated by annexin V binding test so as to use a coated plate.
To bind annexin V, his-tagged recombinant annexin V protein (20 μg/mL) is dissolved in TBS buffer containing 10 mg/mL of BSA and then the solution is placed ELISA plate coated by phosphatidylserine or phosphatidylcholine. After 1 hour of standing at room temperature, the plate is washed by TBS-T buffer for 3 times and the bound annexin V protein is reacted with mouse anti histidine IgG antibody (Santa Cruz Biotechnology) to which HRP is bound and then binding is tested by the reaction with TBM base.

Substance | phage titer of selected phage bound to apoptotic cells after peptide treatment [1] | binding of labeled peptide to apoptotic cells by FACS [2] | binding of labeled peptide to normal cells by FACS ([2]; normal H460 cell) | marking of apoptotic cells (fluorescent microscope) ([3]; apoptotic H460 cells) | binding site on apoptotic cells compared with annexin V ([3]; apoptotic H460 cells, photo composition / laser confocal microscope) | marking of normal cells (fluorescent microscope) [3] | ex vivo fluorescein signal from tumor tissue [4] | location of peptide fluorescent signal relative to TUNEL staining in tumor ([5]; TUNEL analyses of tumor tissue) | peptide observed in liver and lung tissue ([5]; control group organs, cryosection) | peptide observed in tumor region stained by CD31 ([5]; cryosection) | fluorescence by the peptide in kidney ([5]; cryosection, excreted peptide in the uresis path) | in vivo fluorescein signal from tumor tissue [4] | inhibition of phosphatidylserine binding of the selected phage clone [6] | phage titer of selected phage bound to apoptotic cells after annexin V pre-treatment ([1]; annexin V 10 μM, pre-cultured 30 minutes, H460) | annexin V binding to coated plate [7]
CLSYYPSYC [peptide of the present embodiment] | greatly decreased | certainly bound | not certainly bound | marking is occurred in both cases | bound to the same site | marking is not occurred | intensively monitored | observed mainly in the TUNEL stained region | not observed | a large amount | observed |  |  |  | 
NSSVDK [control group peptide, reference compound] | no difference | not certainly bound |  | marking is occurred in annexin V case only |  |  | very weakly monitored or not monitored |  |  | not observed |  | very weakly monitored or not monitored |  |  | 
annexin V: annexin V protein, phosphatidylserine-binding reference (his-tagged recombinant or Alexa fluor 594 labeled) |  |  |  | marking is occurred |  | marking is not occurred |  |  |  |  |  |  | inhibits | greatly decreased | certainly bound
fluorescein-labeled CLSYYPSYC (fluorescein-CLSYYPSYC; cysteine pairing not given here) [… peptide with fluorescein bonded at N-end] |  |  |  |  |  |  |  |  |  |  |  | intensively detected |  |  | 
